Active and inactive are the calls of the source. The rule behind the calls is not given here.
Columns and labels:
[1] = target: T1, 3',5'-cyclic-AMP phosphodiesterase 4B (Homo sapiens, UniProt Q07343); test: Inhibition of PDE4B (unknown origin) using [3H]cAMP as substrate at 10 uM incubated for 30 mins by scintillation proximity assay relative to control
[2] = target: T1, 3',5'-cyclic-AMP phosphodiesterase 4B; test: Inhibition of PDE4B (unknown origin) using [3H]cAMP as substrate incubated for 30 mins by scintillation proximity assay
[3] = target: Tumor necrosis factor (Homo sapiens) (UniProt P01375); test: Inhibition of TNF-alpha (unknown origin) at 0.1 uM relative to control
Sequence of Tumor necrosis factor (Homo sapiens) (P01375 whole entry): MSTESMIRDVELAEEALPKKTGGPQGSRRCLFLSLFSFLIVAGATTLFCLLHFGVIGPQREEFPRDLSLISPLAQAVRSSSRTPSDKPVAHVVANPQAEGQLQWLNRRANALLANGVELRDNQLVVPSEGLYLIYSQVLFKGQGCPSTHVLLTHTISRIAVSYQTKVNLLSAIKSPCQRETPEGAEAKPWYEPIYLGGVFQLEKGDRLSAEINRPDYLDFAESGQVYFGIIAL

[4] = target: cAMP and cAMP-inhibited cGMP 3',5'-cyclic phosphodiesterase 10A (Homo sapiens) (UniProt Q9Y233); test: Inhibition of PDE10A2 (unknown origin) at 10 uM relative to control
Sequence of cAMP and cAMP-inhibited cGMP 3',5'-cyclic phosphodiesterase 10A (Homo sapiens) (Q9Y233 whole entry): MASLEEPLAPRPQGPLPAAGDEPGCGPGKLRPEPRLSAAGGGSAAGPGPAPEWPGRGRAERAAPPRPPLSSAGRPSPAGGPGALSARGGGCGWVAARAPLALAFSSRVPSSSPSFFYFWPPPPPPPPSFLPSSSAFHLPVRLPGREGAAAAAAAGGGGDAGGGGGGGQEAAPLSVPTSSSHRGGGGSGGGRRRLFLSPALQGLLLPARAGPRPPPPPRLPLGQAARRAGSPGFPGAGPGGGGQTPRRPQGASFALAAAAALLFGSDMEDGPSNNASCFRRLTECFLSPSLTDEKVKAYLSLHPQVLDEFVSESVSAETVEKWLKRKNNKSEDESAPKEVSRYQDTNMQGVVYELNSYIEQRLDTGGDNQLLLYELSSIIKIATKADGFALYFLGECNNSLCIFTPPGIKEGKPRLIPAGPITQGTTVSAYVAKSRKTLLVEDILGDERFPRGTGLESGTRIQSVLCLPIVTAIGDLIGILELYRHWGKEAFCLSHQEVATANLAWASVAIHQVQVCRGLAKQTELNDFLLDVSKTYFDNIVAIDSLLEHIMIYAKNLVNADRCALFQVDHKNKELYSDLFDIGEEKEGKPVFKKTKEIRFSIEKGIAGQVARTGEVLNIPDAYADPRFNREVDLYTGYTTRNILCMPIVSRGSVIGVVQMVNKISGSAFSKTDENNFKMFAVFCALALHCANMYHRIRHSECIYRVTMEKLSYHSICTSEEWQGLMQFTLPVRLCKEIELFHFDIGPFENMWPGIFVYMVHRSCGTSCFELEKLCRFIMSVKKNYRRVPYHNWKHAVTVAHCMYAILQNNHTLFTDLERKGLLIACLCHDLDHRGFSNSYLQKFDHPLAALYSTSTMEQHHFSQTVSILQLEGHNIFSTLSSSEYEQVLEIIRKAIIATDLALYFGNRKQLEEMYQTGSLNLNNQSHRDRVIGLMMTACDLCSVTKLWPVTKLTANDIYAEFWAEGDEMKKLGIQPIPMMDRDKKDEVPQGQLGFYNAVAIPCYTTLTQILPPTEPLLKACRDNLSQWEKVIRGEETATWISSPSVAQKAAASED

[5] = Toxicity in zebrafish embryos assessed as teratogenicity at 1 to 100 uM; set-up: species or system Danio rerio; settings: in vivo, dose 1-100 µM
[6] = target: cGMP-inhibited 3',5'-cyclic phosphodiesterase 3B (Homo sapiens) (UniProt Q13370); test: Inhibition of PDE3B (unknown origin) at 10 uM relative to control
[7] = test system: Rattus norvegicus; test: Antiinflammatory activity against complete Freund's adjuvant induced rat model of arthritis assessed as improvement in intestinal absorption at 30 mg/kg, ip measured on day 21; format: functional, organism-based; settings: time 21.0 day
[8] = test system: Rattus norvegicus; test: Antiinflammatory activity against complete Freund's adjuvant induced ip dosed rat model of arthritis assessed as reduction in paw swelling measured on day 21 by macroscopic analysis; format: functional, organism-based; settings: time 21.0 day
[9] = Hepatotoxicity in zebrafish embryos assessed as effect on liver size at 1 to 100 uM; format: toxicity, Danio rerio; settings: in vivo, dose 1-100 µM
[10] = target: Dual specificity calcium/calmodulin-dependent 3',5'-cyclic nucleotide phosphodiesterase 1C (Homo sapiens) (UniProt Q14123); test: Inhibition of PDE1C (unknown origin) at 10 uM relative to control
[11] = target: 3',5'-cyclic-AMP phosphodiesterase 7B (Homo sapiens) (UniProt Q9NP56); test: Inhibition of PDE7B (unknown origin) at 10 uM relative to control
[12] = Toxicity in zebrafish embryos assessed as induction of apoptosis at 1 to 100 uM; set-up: species or system Danio rerio; settings: dose 1-100 µM
[13] = test system: Rattus norvegicus; test: Antiinflammatory activity against complete Freund's adjuvant induced rat model of arthritis assessed as effect on IL-6 expression at 10 to 30 mg/kg, ip by immunohistochemical staining based assay; format: functional, organism-based; settings: dose 10-30 mg/kg
[14] = target: Tumor necrosis factor (Homo sapiens) (UniProt P01375); test: Inhibition of TNF-alpha (unknown origin) at 1 uM relative to control
[15] = target: cGMP-specific 3',5'-cyclic phosphodiesterase (Homo sapiens) (UniProt O76074); test: Inhibition of PDE5A1 (unknown origin) at 10 uM relative to control
[16] = Cardiac toxicity in zebrafish embryos assessed as effect on heart rate at 1 to 100 uM; set-up: species or system Danio rerio; settings: in vivo, dose 1-100 µM
[17] = test system: RAW264.7; test: Cytotoxicity against mouse RAW264.7 cells assessed as reduction in cell viability measured after 48 hrs by MTT assay; format: cell-based; settings: RAW264.7, 48 h
[18] = test system: Rattus norvegicus; test: Antiinflammatory activity against complete Freund's adjuvant induced rat model of arthritis assessed as decrease in pathological changes at 30 mg/kg, ip measured on day 21 by H and E staining based histopathological analysis; format: functional, organism-based; settings: time 21.0 day
[19] = species on record: Homo sapiens; test: Selectivity ratio of IC50 for PDE4D (unknown origin) to IC50 for PDE4B (unknown origin)
[20] = test system: Rattus norvegicus; test: Antiinflammatory activity against complete Freund's adjuvant induced rat model of arthritis assessed as decrease in TNF-alpha expression at 10 to 30 mg/kg, ip by immunohistochemical staining based assay; format: functional, organism-based; settings: dose 10-30 mg/kg
[21] = target: Dual specificity calcium/calmodulin-dependent 3',5'-cyclic nucleotide phosphodiesterase 1B (Homo sapiens) (UniProt Q01064); test: Inhibition of PDE1B (unknown origin) at 10 uM relative to control
Sequence of Dual specificity calcium/calmodulin-dependent 3',5'-cyclic nucleotide phosphodiesterase 1B (Homo sapiens) (Q01064 whole entry): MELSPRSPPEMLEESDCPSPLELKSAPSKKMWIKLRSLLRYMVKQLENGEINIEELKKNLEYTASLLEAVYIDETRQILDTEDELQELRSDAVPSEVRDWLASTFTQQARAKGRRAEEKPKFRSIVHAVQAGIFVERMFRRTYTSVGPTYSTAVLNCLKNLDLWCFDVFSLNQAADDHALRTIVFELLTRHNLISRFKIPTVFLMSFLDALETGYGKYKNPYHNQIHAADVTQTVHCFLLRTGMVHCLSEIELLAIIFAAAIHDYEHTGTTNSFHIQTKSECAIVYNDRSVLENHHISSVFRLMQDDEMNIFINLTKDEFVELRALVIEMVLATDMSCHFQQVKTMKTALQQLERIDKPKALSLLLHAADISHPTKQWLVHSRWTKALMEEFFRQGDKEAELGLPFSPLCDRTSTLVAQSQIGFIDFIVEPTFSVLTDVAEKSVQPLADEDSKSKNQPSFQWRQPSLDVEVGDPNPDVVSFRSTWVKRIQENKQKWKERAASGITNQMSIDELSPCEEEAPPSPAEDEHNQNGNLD

[22] = target: 3',5'-cyclic-AMP phosphodiesterase 4D (Homo sapiens, UniProt Q08499); test: Inhibition of PDE4D (unknown origin)
Sequence of 3',5'-cyclic-AMP phosphodiesterase 4D (Q08499 whole entry): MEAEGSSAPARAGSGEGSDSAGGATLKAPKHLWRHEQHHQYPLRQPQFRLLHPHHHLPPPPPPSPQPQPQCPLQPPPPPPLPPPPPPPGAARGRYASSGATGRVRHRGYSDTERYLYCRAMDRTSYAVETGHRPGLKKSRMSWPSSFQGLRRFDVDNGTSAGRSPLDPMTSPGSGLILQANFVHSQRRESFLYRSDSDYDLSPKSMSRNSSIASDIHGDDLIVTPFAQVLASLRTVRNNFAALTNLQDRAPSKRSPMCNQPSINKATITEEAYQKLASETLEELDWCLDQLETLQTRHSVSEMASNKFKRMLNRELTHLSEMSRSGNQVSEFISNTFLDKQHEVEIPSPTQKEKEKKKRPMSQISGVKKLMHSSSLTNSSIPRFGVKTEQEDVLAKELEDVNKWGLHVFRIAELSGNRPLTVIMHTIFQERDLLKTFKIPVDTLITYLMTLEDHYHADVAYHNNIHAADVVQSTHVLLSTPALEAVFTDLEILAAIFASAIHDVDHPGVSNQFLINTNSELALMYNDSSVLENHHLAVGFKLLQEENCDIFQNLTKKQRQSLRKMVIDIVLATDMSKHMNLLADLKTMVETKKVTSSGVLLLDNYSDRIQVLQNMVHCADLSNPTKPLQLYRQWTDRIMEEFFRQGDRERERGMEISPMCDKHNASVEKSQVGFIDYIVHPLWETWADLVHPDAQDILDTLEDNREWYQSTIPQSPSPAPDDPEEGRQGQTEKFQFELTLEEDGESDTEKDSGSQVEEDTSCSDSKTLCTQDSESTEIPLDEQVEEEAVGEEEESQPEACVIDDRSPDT

[23] = target: Tumor necrosis factor (Homo sapiens) (UniProt P01375); test: Inhibition of TNF-alpha (unknown origin) at 10 uM relative to control
[24] = target: cGMP-dependent 3',5'-cyclic phosphodiesterase (Homo sapiens) (UniProt O00408); test: Inhibition of PDE2A1 (unknown origin) at 10 uM relative to control
[25] = target: cAMP and cAMP-inhibited cGMP 3',5'-cyclic phosphodiesterase 10A (Homo sapiens) (UniProt Q9Y233); test: Inhibition of PDE10A1 (unknown origin) at 10 uM relative to control
[26] = test system: Rattus norvegicus; test: Antiinflammatory activity against complete Freund's adjuvant induced rat model of arthritis assessed as reduction in paw volume at 30 mg/kg, ip measured on day 21 by macroscopic analysis; format: functional, organism-based; settings: time 21.0 day
[27] = target: Dual specificity calcium/calmodulin-dependent 3',5'-cyclic nucleotide phosphodiesterase 1A (Homo sapiens) (UniProt P54750); test: Inhibition of PDE1A1 (unknown origin) at 10 uM relative to control
Sequence of Dual specificity calcium/calmodulin-dependent 3',5'-cyclic nucleotide phosphodiesterase 1A (Homo sapiens) (P54750 whole entry): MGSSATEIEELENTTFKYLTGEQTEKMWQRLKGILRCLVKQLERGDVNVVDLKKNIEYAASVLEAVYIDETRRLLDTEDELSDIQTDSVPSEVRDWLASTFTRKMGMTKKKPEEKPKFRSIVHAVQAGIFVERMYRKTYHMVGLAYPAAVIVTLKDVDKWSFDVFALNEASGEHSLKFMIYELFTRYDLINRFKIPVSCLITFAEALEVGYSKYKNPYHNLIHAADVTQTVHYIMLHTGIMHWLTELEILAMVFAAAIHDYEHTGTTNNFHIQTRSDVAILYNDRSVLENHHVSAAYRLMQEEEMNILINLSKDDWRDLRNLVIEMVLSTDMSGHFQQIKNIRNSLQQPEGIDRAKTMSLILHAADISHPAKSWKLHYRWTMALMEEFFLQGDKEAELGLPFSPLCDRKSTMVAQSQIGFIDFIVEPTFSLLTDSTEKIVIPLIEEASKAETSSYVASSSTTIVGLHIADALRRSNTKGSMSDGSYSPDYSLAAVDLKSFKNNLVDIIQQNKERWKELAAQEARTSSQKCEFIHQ

[28] = target: Tumor necrosis factor (Homo sapiens) (UniProt P01375); test: Inhibition of TNF-alpha (unknown origin) at 3 uM relative to control
[29] = test system: Rattus norvegicus; test: Antiinflammatory activity against complete Freund's adjuvant induced rat model of arthritis assessed as reduction in joint degeneration changes at 30 mg/kg, ip measured on day 21 by H and E staining based histopathological analysis; format: functional, organism-based; settings: time 21.0 day
[30] = target: Cone cGMP-specific 3',5'-cyclic phosphodiesterase subunit alpha' (Homo sapiens) (UniProt P51160); test: Inhibition of PDE6C (unknown origin) at 10 uM relative to control
[31] = target: Tumor necrosis factor (Homo sapiens) (UniProt P01375); test: Inhibition of TNF-alpha (unknown origin) at 0.3 uM relative to control
[32] = target: High affinity cAMP-specific and IBMX-insensitive 3',5'-cyclic phosphodiesterase 8A (Homo sapiens) (UniProt O60658); test: Inhibition of PDE8A1 (unknown origin) at 10 uM relative to control
[33] = target: High affinity 3',5'-cyclic-AMP phosphodiesterase 7A (Homo sapiens) (UniProt Q13946); test: Inhibition of PDE7A1 (unknown origin) at 10 uM relative to control
[34] = Hepatotoxicity in zebrafish embryos assessed as liver degeneration at 1 to 100 uM; format: toxicity, Danio rerio; settings: in vivo, dose 1-100 µM
[35] = target: Dual 3',5'-cyclic-AMP and -GMP phosphodiesterase 11A (Homo sapiens) (UniProt Q9HCR9); test: Inhibition of PDE11A4 (unknown origin) at 10 uM relative to control
[36] = target: High affinity cGMP-specific 3',5'-cyclic phosphodiesterase 9A (Homo sapiens) (UniProt O76083); test: Inhibition of PDE9A2 (unknown origin) at 10 uM relative to control
[37] = target: cGMP-inhibited 3',5'-cyclic phosphodiesterase 3A (Homo sapiens) (UniProt Q14432); test: Inhibition of PDE3A (unknown origin) at 10 uM relative to control
Sequence of cGMP-inhibited 3',5'-cyclic phosphodiesterase 3A (Homo sapiens) (Q14432 whole entry): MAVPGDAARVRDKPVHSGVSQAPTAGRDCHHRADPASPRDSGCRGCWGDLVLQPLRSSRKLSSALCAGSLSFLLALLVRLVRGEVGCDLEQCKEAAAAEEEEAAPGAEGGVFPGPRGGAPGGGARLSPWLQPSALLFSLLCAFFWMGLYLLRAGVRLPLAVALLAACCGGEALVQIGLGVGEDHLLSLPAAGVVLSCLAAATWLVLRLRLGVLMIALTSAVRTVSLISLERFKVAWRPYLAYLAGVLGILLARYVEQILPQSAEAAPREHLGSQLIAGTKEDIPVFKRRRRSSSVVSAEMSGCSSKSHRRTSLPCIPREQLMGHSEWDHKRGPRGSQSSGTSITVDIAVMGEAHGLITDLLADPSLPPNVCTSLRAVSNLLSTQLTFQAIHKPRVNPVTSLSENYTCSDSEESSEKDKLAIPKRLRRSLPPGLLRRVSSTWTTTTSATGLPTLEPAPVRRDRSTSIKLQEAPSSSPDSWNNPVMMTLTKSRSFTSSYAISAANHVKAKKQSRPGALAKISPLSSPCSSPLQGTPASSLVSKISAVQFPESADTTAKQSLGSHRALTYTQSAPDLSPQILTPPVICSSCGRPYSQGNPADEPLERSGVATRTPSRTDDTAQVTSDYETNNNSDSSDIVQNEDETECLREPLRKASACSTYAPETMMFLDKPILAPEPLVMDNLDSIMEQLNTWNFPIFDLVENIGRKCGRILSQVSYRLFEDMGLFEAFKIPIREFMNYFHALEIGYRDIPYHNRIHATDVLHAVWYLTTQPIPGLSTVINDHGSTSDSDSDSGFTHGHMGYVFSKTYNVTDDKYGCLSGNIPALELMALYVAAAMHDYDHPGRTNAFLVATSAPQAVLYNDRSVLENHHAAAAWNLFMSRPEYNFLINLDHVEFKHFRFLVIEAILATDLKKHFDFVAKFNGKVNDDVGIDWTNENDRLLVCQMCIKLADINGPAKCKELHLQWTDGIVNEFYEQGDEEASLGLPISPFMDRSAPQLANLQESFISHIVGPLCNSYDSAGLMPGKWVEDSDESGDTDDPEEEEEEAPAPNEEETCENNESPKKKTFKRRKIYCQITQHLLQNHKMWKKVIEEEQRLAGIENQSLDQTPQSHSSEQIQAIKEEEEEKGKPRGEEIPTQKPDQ

[38] = test system: Rattus norvegicus; test: Antiinflammatory activity against complete Freund's adjuvant induced rat model of arthritis assessed as reduction in joint structure deformity at 1 mg/kg, ip measured on day 21 by radiographic analysis; format: functional, organism-based; settings: time 21.0 day
[39] = test system: Rattus norvegicus; test: Antiinflammatory activity against complete Freund's adjuvant induced rat model of arthritis assessed as reduction in paw volume at 1 mg/kg, po administered once daily measured on day 21 by macroscopic analysis; format: functional, organism-based; settings: time 21.0 day

T1 sequence (Q07343 whole entry): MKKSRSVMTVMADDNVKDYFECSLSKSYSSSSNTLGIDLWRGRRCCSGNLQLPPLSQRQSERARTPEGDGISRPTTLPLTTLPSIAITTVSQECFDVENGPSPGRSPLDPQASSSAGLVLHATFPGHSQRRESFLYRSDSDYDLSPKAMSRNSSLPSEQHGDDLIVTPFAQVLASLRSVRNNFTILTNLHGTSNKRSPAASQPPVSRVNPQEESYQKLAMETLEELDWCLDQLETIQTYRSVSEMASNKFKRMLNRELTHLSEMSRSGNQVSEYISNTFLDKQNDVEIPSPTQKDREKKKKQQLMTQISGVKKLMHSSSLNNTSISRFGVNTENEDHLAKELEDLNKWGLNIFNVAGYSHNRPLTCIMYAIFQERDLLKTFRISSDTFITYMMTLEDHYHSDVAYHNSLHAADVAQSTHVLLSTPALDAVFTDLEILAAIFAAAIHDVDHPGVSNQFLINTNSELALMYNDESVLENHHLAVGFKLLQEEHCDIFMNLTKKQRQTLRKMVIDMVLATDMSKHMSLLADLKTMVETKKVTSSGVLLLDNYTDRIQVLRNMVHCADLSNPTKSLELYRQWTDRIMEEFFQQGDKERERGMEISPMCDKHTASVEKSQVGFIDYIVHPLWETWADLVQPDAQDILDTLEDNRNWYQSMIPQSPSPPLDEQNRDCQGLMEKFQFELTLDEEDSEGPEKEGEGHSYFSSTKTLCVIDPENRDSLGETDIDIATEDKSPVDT

## C=CCc1c(-c2cccc(NS(C)(=O)=O)c2)oc(=O)c2ccccc12
[1]
  inhibition: 55.8%

## C=CCc1c(-c2cccc(NS(=O)(=O)c3ccccc3)c2)oc(=O)c2ccc(Cl)cc12
[1]
  inhibition: 81.2%
[2]
  IC50: 4780 nM

## C=CCc1c(-c2cccc(NS(=O)(=O)c3cccs3)c2)oc(=O)c2ccccc12
[1]
  inhibition: 85.9%
[2]
  IC50: 1760 nM

## C=CCc1c(-c2ccc(NS(C)(=O)=O)cc2)oc(=O)c2ccc(Cl)cc12
[1]
  inhibition: 56%

## C=CCc1c(-c2cccc(NS(=O)(=O)c3ccc(OC)cc3)c2)oc(=O)c2ccccc12
[1]
  inhibition: 80%
[2]
  IC50: 3330 nM

## C=CCc1c(-c2cccc(NC(=O)c3ccccc3)c2)oc(=O)c2ccccc12
[1]
  inhibition: 72.6%

## C=CCc1c(-c2cccc(NS(C)(=O)=O)c2)oc(=O)c2cc(F)ccc12
[1]
  inhibition: 90.9%
[2]
  IC50: 1940 nM

## COc1ccc(C2CNC(=O)C2)cc1OC1CCCC1 (stereo unspecified)
[1]
  inhibition: 77.2%
[3]
  inhibition: 50.3%

## C=CCc1c(-c2cccc(NS(=O)(=O)c3ccc(C)cc3)c2)oc(=O)c2ccccc12
[1]
  inhibition: 77.8%
[2]
  IC50: 2070 nM

## C=CCc1c(-c2cccc(NC(=O)c3ccccc3)c2)oc(=O)c2cc(F)ccc12
[1]
  inhibition: 74.6%

## C=CCc1c(-c2ccc(NS(C)(=O)=O)cc2)oc(=O)c2ccccc12
[1]
  inhibition: 54.9%

## C=CCc1c(-c2cccc(NS(C)(=O)=O)c2)oc(=O)c2ccc(Cl)cc12
[1]
  inhibition: 62.2%

## C=CCc1c(-c2cccc(NS(=O)(=O)c3cccs3)c2)oc(=O)c2cc(F)ccc12
[4]
  inhibition: 19%
[5]
  Activity: Non-Toxic
[6]
  inhibition: 7%
[7]
  Activity: Active
[8]
  Activity: Dose-Dependent Effect
[9]
  Activity: Non-Toxic
[10]
  inhibition: 24%
[11]
  inhibition: 3%
[12]
  Activity: Non-Toxic
[13]
  Activity: inactive
[14]
  inhibition: 40.3%
[15]
  inhibition: 8%
[1]
  inhibition: 96%
[2]
  IC50: 540 nM
[16]
  Activity: Non-Toxic
[17]
  IC50: > 100000 nM
[18]
  Activity: Active
[19]
  Ratio IC50: 2.5
[20]
  Activity: Active
[21]
  inhibition: 18%
[22]
  IC50: 1340 nM
[23]
  inhibition: 65.5%
[24]
  inhibition: 9%
[25]
  inhibition: 12%
[26]
  Activity: Active
[27]
  inhibition: 21%
[28]
  inhibition: 45.6%
[29]
  Activity: Active
[30]
  inhibition: 10%
[31]
  inhibition: 30.9%
[32]
  inhibition: 2%
[33]
  inhibition: 6%
[34]
  Activity: Non-Toxic
[35]
  inhibition: 11%
[36]
  inhibition: 8%
[37]
  inhibition: 11%

## C=CCc1c(-c2cccc(NS(=O)(=O)c3ccccc3)c2)oc(=O)c2ccccc12
[1]
  inhibition: 82.9%
[2]
  IC50: 1240 nM

## C=CCc1c(-c2cccc(NS(=O)(=O)c3ccc(C(F)(F)F)cc3)c2)oc(=O)c2ccccc12
[1]
  inhibition: 55.3%

## C=CCc1c(-c2ccc(NC(=O)c3ccccc3)cc2)oc(=O)c2ccccc12
[1]
  inhibition: 46.5%

## C=CCc1c(-c2ccc(NS(=O)(=O)c3ccc(C)cc3)cc2)oc(=O)c2ccccc12
[1]
  inhibition: 63.5%

## C=CCc1c(-c2cccc(NS(=O)(=O)c3cccs3)c2)oc(=O)c2ccc(Cl)cc12
[1]
  inhibition: 75.7%
[2]
  IC50: 4010 nM

## C=CCc1c(-c2ccc(NS(=O)(=O)c3ccc(C)cc3)cc2)oc(=O)c2cc(F)ccc12
[1]
  inhibition: 94%
[2]
  IC50: 2360 nM

## C=CCc1c(-c2ccc(NS(=O)(=O)c3ccccc3)cc2)oc(=O)c2cc(F)ccc12
[1]
  inhibition: 94.4%
[2]
  IC50: 1910 nM

## C=CCc1c(-c2cccc(NS(=O)(=O)c3ccc(C)cc3)c2)oc(=O)c2cc(F)ccc12
[1]
  inhibition: 79.7%
[2]
  IC50: 3040 nM

## C=CCc1c(-c2ccc(NS(=O)(=O)c3ccccc3)cc2)oc(=O)c2ccccc12
[1]
  inhibition: 87.6%
[2]
  IC50: 3910 nM

## CN(Cc1cnc2nc(N)nc(N)c2n1)c1ccc(C(=O)N[C@@H](CCC(=O)O)C(=O)O)cc1
[38]
  Activity: inactive
[20]
  Activity: Active
[39]
  Activity: Active

## C=CCc1c(-c2cccc(NS(=O)(=O)c3ccccc3)c2)oc(=O)c2cc(F)ccc12
[1]
  inhibition: 82.2%
[2]
  IC50: 430 nM
[19]
  Ratio IC50: 2
[22]
  IC50: 900 nM
